Experiments:
[1] = tested on: cultured human iPS-derived cardiomyocytes; assay: Label-free beat pattern (resonant light intensity imaging) of cultured cardiomyocytes on RWG biosensor; settings: Cardiomyocyte, 0.25 h, read-out: IC50, dose-dependent decrease/block of beating (beat rate and amplitude) of cultured cardiomyocytes
Description: Coating of EPIC® resonant waveguide grating (RWG) biosensors. EPIC® 384 well cell culture compatible plates were obtained from Corning, Inc. (Corning, N.Y.). The gelatin-coated EPIC® plates were obtained by incubating the plates with 10 microliter of 20 microgram/mL of freshly prepared gelatin solution in phosphate buffer saline and dried overnight under vacuum. Alternatively or additionally, for example, in experiments with IPS derived cardiomyocytes, the gelatin-coated EPIC® plates were obtained by incubating overnight, uncoated plates with 40 microliters of 0.1% gelatin (Type A) in a solution made with distilled water and autoclaved for 30 minutes to sterilize. The incubated plates were then washed with 40 microliters of sterile water three times immediately before seeding with cardiomyocyte cells.

[2] = tested on: cultured human iPS-derived cardiomyocytes; assay: Dynamic mass redistribution (DMR) assay of cultured cardiomyocytes on RWG biosensor; type: cell-based; settings: 160 nM
Description: Coating of EPIC® resonant waveguide grating (RWG) biosensors. […] VN is the abbreviation of a vitronectin peptide ([…]). First, a functionalized cell adhesive peptide-copolymer was prepared. […] The mobile phase was trifluoroethanol and potassium trifluoroacetate. […] Standards were prepared using the VN peptide in PBS. Absorbance was read on a BIOTEK® Synergy 4.
First Mode The resonant waveguide grating biosensor is illuminated at a normal incidence angle by a collimated LED (light emitting diode) beam, which passes through a tunable optical filter with a pass band width of 1 nm. The illuminated sensor area was imaged to a high speed CMOS (complementary metal-oxide-semiconductor) camera. Spectral images were acquired synchronously when the tunable filter sweeps through a wavelength range which covers the resonances of the biosensors. The image stack contains sensor spectra in all the pixels, where resonance wavelengths are extracted in a 2D image. Normally in each acquisition, the wavelength sweep is from 825 nm to 840 nm, or 820 nm to 835 nm for a duration of 3 seconds, and 150 frames of images were acquired during the wavelength scan. For typical long-term DMR assays, the update rate was from 15 seconds to minutes, with multiple scans averaged into a single data point. […]

Row | Compound | IC50 [1] [nM] | DMR signal of cultured cardiomyocytes in response to stimulation ([2]; compared to negative control (assay vehicle), 37° C., FIG. 3) | oscillation pattern of the DMR signal after stimulation ([2]; compared to the baseline and the DMR induced by the assay buffer)
1 | COc1cc(N)c(Cl)cc1C(=O)NC1CCN(CCCOc2ccc(F)cc2)CC1OC (stereo not shown) [cisapride, cisapride monohydrate] | ~160 | – | –
2 | CC(C)NC[C@H](O)c1ccc(O)c(O)c1 [isoprotenerol, (−)-Isoproterenol] | – | more sustained DMR signal | became smaller but with higher frequency
3 | COC(=O)C1=C(C)NC(C)=C(C(=O)OC(C)C)C1c1cccc2nonc12 (stereo not shown) [isradipine] | ~100 | – | –
